Activity calls are given as the source filed them. The calls are words filed in the database; no cut-off is given here.

Assay [1] concerns CCRF-CEM. In words: Induction of apoptosis in human CCRF-CEM cells assessed as viable cells at 4 uM incubated for 48 hrs by Annexin V-FITC/PI staining based flow cytometry (reference value: 83.4 %). It is filed as functional. The conditions noted are these: read-out: Activity.
The test system of assay [2] is CCRF-CEM. In words: Induction of DNA damage in human CCRF-CEM cells assessed as increase in gammaH2AX phosphorylation incubated for 24 hrs by DAPI staining based immunofluorescence microscopic analysis. The format is functional, cell-based. The note with it: dose 1-4 µM.
In assay [3] the test system is CCRF-CEM. In words: Downregulation of ROS level in human CCRF-CEM cells at 0.125 to 2 uM incubated for 12 hrs by DCFH-DA probe based flow cytometry analysis. It is filed as functional, cell-based. The conditions noted are these: dose 0.125-2 µM.
Assay [4] has as its system CCRF-CEM. In words: Induction of apoptosis in human CCRF-CEM cells assessed effect on procaspase-3 expression at 0.25 to 0.5 uM incubated for 48 hrs by Western blot analysis. It is filed as functional, cell-based. The conditions noted are these: dose 0.25-0.5 µM.
Assay [5] relates to CCRF-CEM. In words: Induction of apoptosis in human CCRF-CEM cells assessed as late apoptotic cells at 0.25 uM incubated for 48 hrs by Annexin V-FITC/PI staining based flow cytometry (reference value: 3.2 %). The format is functional.
For the next assay, the system named is SH-SY5Y. In words: Antiproliferative activity against human SH-SY5Y cells assessed as cell growth inhibition incubated for 72 hrs by MTT assay. The format is functional, cell-based.
For assay [6], the system named is CCRF-CEM. In words: Induction of cell cycle arrest in human CCRF-CEM cells assessed as cell accumulation at S phase at 2 uM incubated for 24 hrs by PI staining based flow cytometry analysis (reference value: 15.5 %). It is filed as functional.
The subject of assay [7] is CCRF-CEM. In words: Antiproliferative activity against human CCRF-CEM cells assessed as cell growth inhibition at 0.1875 to 20 uM by CCK8 assay. The note with it: dose 0.1875-20 µM, time 24-48 hrs, TDE = time-dependent effect. It is filed as functional, cell-based.
Assay [8] deals with CCRF-CEM. In words: Induction of apoptosis in human CCRF-CEM cells assessed as viable cells at 0.5 uM incubated for 48 hrs by Annexin V-FITC/PI staining based flow cytometry (reference value: 83.4 %). It is filed as functional. The note with it: read-out: Activity.
In assay [9] the test system is CCRF-CEM. In words: Induction of apoptosis in human CCRF-CEM cells assessed as early apoptotic cells at 0.5 uM incubated for 48 hrs by Annexin V-FITC/PI staining based flow cytometry (reference value: 13.4 %). It is filed as functional.
Assay [10] has as its system CCRF-CEM. In words: Downregulation of ROS level in human CCRF-CEM cells assessed as effect on CAT level at 0.125 to 0.5 uM incubated for 12 hrs in presence of NADPH by DCFH-DA probe based flow cytometry analysis. It is filed as functional, cell-based. The note with it: dose 0.125-0.5 µM.
Assay [11] concerns CCRF-CEM. In words: Downregulation of ROS level in human CCRF-CEM cells assessed as increase in GPx activity at 0.125 to 2 uM incubated for 12 hrs in presence of NADPH by […]. It is filed as functional, cell-based. The conditions noted are these: dose 0.125-2 µM.
Assay [12] relates to CCRF-CEM. In words: Induction of apoptosis in human CCRF-CEM cells assessed as early apoptotic cells at 4 uM incubated for 48 hrs by Annexin V-FITC/PI staining based flow cytometry (reference value: 13.4 %). The format is functional.
Assay [13] relates to CCRF-CEM. In words: Induction of cell cycle arrest in human CCRF-CEM cells assessed as cell accumulation at S phase at 0.25 uM incubated for 24 hrs by PI staining based flow cytometry analysis (reference value: 15.5 %). The format is functional.
The test system of assay [14] is CCRF-CEM. In words: Induction of cell cycle arrest in human CCRF-CEM cells assessed as cell accumulation at G2/M phase at 0.5 uM incubated for 24 hrs by PI staining based flow cytometry analysis (reference value: 61.3 %). The format is functional.
Assay [15] concerns CCRF-CEM. In words: Induction of cell cycle arrest in human CCRF-CEM cells assessed as cell accumulation at G1 phase at 1 uM incubated for 24 hrs by PI staining based flow cytometry analysis (reference value: 24.1 %). It is filed as functional.
Assay [16] deals with CCRF-CEM. In words: Downregulation of ROS level in human CCRF-CEM cells assessed as H2O2 level at 1 uM incubated for 12 hrs in presence of NADPH by absorbance based assay. The format is functional, cell-based.
Assay [17] relates to CCRF-CEM. In words: Induction of apoptosis in human CCRF-CEM cells assessed as viable cells at 0.25 uM incubated for 48 hrs by Annexin V-FITC/PI staining based flow cytometry (reference value: 83.4 %). The format is functional. The conditions noted are these: read-out: Activity.
In the next assay the test system is HCT-116. In words: Antiproliferative activity against human HCT-116 cells assessed as cell growth inhibition incubated for 72 hrs by MTT assay. It is filed as functional, cell-based. The conditions noted are these: HCT-116, 72 h.
In assay [18] the test system is CCRF-CEM. In words: Induction of cell cycle arrest in human CCRF-CEM cells assessed as cell accumulation at G1 phase at 0.25 uM incubated for 24 hrs by PI staining based flow cytometry analysis (reference value: 24.1 %). It is filed as functional.
The test system of assay [19] is CCRF-CEM. In words: Downregulation of ROS level in human CCRF-CEM cells assessed as effect on H2O2 level at 0.125 to 0.5 uM incubated for 12 hrs in presence of NADPH by DCFH-DA probe based flow cytometry analysis. The format is functional, cell-based. The conditions noted are these: dose 0.125-0.5 µM.
Assay [20] deals with CCRF-CEM. In words: Induction of apoptosis in human CCRF-CEM cells assessed as early apoptotic cells at 2 uM incubated for 48 hrs by Annexin V-FITC/PI staining based flow cytometry (reference value: 13.4 %). It is filed as functional.
For assay [21], the system named is CCRF-CEM. In words: Inhibition of cell proliferation in human CCRF-CEM cells assessed as decrease in cell number upto 4 uM incubated for 12 hrs by cell counter analysis. The format is functional, cell-based.
In assay [22] the test system is CCRF-CEM. In words: Induction of cell cycle arrest in human CCRF-CEM cells assessed as cell accumulation at G2/M phase at 0.25 uM incubated for 24 hrs by PI staining based flow cytometry analysis (reference value: 61.3 %). It is filed as functional.

On to `C[C@@H]1CC[C@H]2[C@@H](C)C(OC(=O)c3ccc(N(CCCl)CCCl)cc3)O[C@@H]3O[C@@]4(C)CC[C@@H]1[C@]32OO4` (some centres undefined), for which the viability at 4 µM in the assay with CCRF-CEM [1] turned out to be 47.8%. In addition, the Activity result with CCRF-CEM [2] is “Dose-Dependent Effect”; with CCRF-CEM [3], “Dose-Dependent Effect”; in the assay with CCRF-CEM [5], 11.7%; in the assay on CCRF-CEM [6] it was 6.5%; in the assay with CCRF-CEM [7], “Tde”; in the assay on CCRF-CEM [9], 78.6%. The Activity with CCRF-CEM [12] stood at 37.3%; in the assay with CCRF-CEM [13] it was 7.9%; in the assay on CCRF-CEM [14] it was 70.8%; with CCRF-CEM [15] it was 18.2%; with CCRF-CEM [18], 26.8%; with CCRF-CEM [20], 33.4%. Also, the Activity in the assay with CCRF-CEM [22] is 65.9%. For the same molecule, the outcome in the assay with CCRF-CEM [4] and in the assay with CCRF-CEM [16] was inactive. The figures for the 50% inhibitory concentration (IC50) in the assay on SH-SY5Y and with HCT-116 were above 40 µM and 3.1 µM, respectively. In the assay with CCRF-CEM [8], the viability at 0.5 µM worked out at 64.4%. In addition, the outcome with CCRF-CEM [10], in the assay on CCRF-CEM [11] and in the assay on CCRF-CEM [19] was Active. In the assay on CCRF-CEM [17], the viability at 0.25 µM worked out at 67.7%. In addition, in the assay with CCRF-CEM [21], the inhibition entry was “Active”.

(Values after ChEMBL document CHEMBL5247590, “Novel nitrogen mustard-artemisinin hybrids with potent anti-leukemia action through DNA damage and activation of GPx” (Eur J Med Chem, 2022).)
